Columns and labels:
HCoEpiC cell line = assay: Selectivity index against HCoEpiC; type: cell-based; conditions: SI = CC50/IC50
H460 cells [1] = assay: MTT assay H460; type: cell-based, human
Description: Details are given in Supplementary Materials and Methods. Using probability unit and weighted regression method to calculate the IC50 value of compounds.
Total cells in the logarithmic growth phase were collected, digested using 0.25% pancreatic enzymes, and then diluted into single-cell suspensions using phosphate-buffered solution (PBS). These cells were seeded into 96-well plates at 4× 10^3-5× 10^3 cells per well (100 µL per well) and then A549, H460, OVCAR-3, SGC7901, MDA-MB-231, HCT116 and HepG2 were cultured at 37°Cin an incubator containing 5% CO2. After cell complete attachment, 100 µL of different concentrations of compounds (0.625 μM, 1.25 μM, 2.5μM, 5 μM, 10 μM) were added to the cells after the nutrient solution in each well was discarded, while no compound except 0.1% DMSO was added to cells in the control group; at the same time, each concentration was set up to 5 wells. In addition, 5 wells in each 96-well plate only received 100 µL of nutrient solution as a blank control. The plates were taken out after the cells were incubated with compounds for 24 h, and 20 µL of MTT solution (5 mg/mL) (Wuhan Boster Biotechnology Limited Company, Wuhan, China; item No. AR1156) was added into all the wells. […] When the crystals were fully dissolved, the blank wells were used to zero the plate reader. The optical density (OD) of each well was detected at 490 nm. […]

A549 cells [2] = assay: Cell cycle PI staining FACS, A549; type: cell-based, human; conditions: A549, 0.5, 1.0, 1.5 μM, 24 h
Source text: (§1) TS is a crucial enzyme in the DNA synthesis stage. When it is inhibited, first to show cell cycle arrest at G1/S phase. […] Flow cytometry show (Fig. 3), as the concentration of the compound increases, the cells in the G0/G1 phase increase, the cells in the S phase and the G2/M phase decrease. Eventually, the proliferation of cancer cells was inhibited by the G1/S phase arrest of the compound L14e.

H460 cells [3] = assay: Cell cycle PI staining FACS, H460; type: cell-based, human; conditions: H460, 0.5, 1.0, 1.5 μM, 24 h
Source text: as §1

A549 cells [4] = assay: Transwell migration and wound healing, A549; type: cell-based, human; conditions: A549, 0.5, 1.0, 1.5 μM, 24 h
Description: Cell migration ability was measured using transwell chambers (8-μm pore size; Corning Costar, Cambridge, MA, USA). For the transwell assay, A549 and H460 cells suspended in serum-free RPMI-1640 medium containing different concentrations of L14e (0, 0.5, 1.0, and 1.5 μM) were seeded into the upper chamber. The lower chamber contained RPMI-1640 medium supplemented with 20% serum. After 24 h incubation, the filters were fixed in methanol and stained with 0.1% crystal violet. The upper faces of the filters were gently abraded, and the lower faces with cells migrated across the filters were imaged and counted under the microscope. For wound healing assays, cells were placed into 6-well plates and cultured until 100% confluence. An artificial scratch was created using a 200 μL pipette tip. Add serum-free RPMI-1640 medium containing different concentrations of drugs. At 24 h after culturing in serum-free medium, wound closure images were captured in the same field under magnification. Cell healing rates were calculated by the fraction of cell coverage across the line. These experiments were performed in triplicate and repeated three times.

A549 tumor xenograft = A549 tumor xenograft model; type: in vivo, BABL/c female nude mice; conditions: 80 mg/kg, 3 weeks
Description: Five-week-old immunodeficient BABL/c female nude mice, weighing 18 to 20 g, were purchased and maintained under specific pathogen-free conditions. They were implanted subcutaneously with 1 × 10^7 A549 cells. Tumor sizes were assessed using the two largest perpendicular axes. Tumor volume was calculated using the formula V = (a × b^2)/2, where a is length and b is width. The tumor volume was measured every 3 days. When tumor volumes reached 50 mm^3, the mice were randomized to drug-treated or vehicle groups (five mice per group). Tumor growth was monitored every 3 days using a Vernier caliper. […] All animal studies were conducted with the approval of the Laboratory Animal Welfare and Ethical Committee of China Medical University.
After incubation with hydrogen peroxide, the slides were washed with PBS and then incubated with 0.4% Triton X-100. The sections were incubated with blocking solution (Dako Protein Block, Dako, Glostrup, Denmark) for 30 min at room temperature after washing with PBS. The sections were further incubated with primary antibodies (Ki67 and cleaved caspase 3 [all from Cell Signaling Technology], diluted at 1:200) overnight at 4 °C, washed with PBS several times, incubated with the corresponding biotinylated secondary antibodies (diluted at 1:500), and then washed with PBS multiple times. After adding avidin-biotin complexes (Vector Laboratories), the sections were visualized using diaminobenzidine (DAB) detection reagent (Enzo Life Sciences, Farmingdale, NY, USA) and mounted with a mounting solution (Vector Laboratories, Burlingame, CA, USA).

In the case of `O=C(Nc1cccc(Cl)c1)Nc1ccccc1NS(=O)(=O)c1c[nH]c(=O)[nH]c1=O` [Compound L14e, N'-(3-chlorophenyl)-2-(2,4-dihydroxypyrimidine-5-sulfonamido)phenyl urea], the “SI (Selectivity index) HCoEpiC” value (HCoEpiC cell line) was 9.40, the “anti-proliferative potency relative to PTX, H460” value (H460 cells [1]) was “nearly five times higher” and the “inhibition of proliferation of H460 cells compared with PTX and compound 10l” value (H460 cells [1]; Fig. 2B(b)) was “significantly more inhibitory”. The “effect on cell cycle” value (A549 cells [2]) was “arrest the cell cycle in the G1/S phase”, the “effect on cell cycle” value (H460 cells [3]) was “arrest the cell cycle in the G1/S phase” and the “effect on cell migration” value (A549 cells [4]) was “significantly inhibited the migration”. The “changes in body weight in xenograft mice” value (A549 tumor xenograft) was “negligible changes in body weight”, the “expression of Ki67 in tumors (IHC)” value (A549 tumor xenograft) was “significantly decreased” and the “expression of cleaved-caspase-3 in tumors (IHC)” value (A549 tumor xenograft) was “significantly increased”. The “growth of xenograft tumors” value (A549 tumor xenograft; intraperitoneal injection) was “significantly suppressed the growth of xenograft tumors” and the “tumor growth inhibition (TGI)” value (A549 tumor xenograft; intraperitoneal injection) was 84.86.
